Measured values published in US5573908A, “Adrenergic receptor as a proto-oncogene” (Duke University, priority 1993, dated 1996).
Several values for one entry are separate records, joined by “and”; a condition that tells them apart may be missing. Equal values may be shown once.

Columns and labels:
[1] = NE stimulated PI hydrolysis in RAT-1 cell lines transfected with vector alone; assay type: cell-based; conditions: 40 min, 10 μM NE, 40 minute, two clones, read-out: NE Stimulated PI Hydrolysis Rmax
Excerpt: In cell lines expressing the α1B -ADR mutant, NE induced a 900 to 1000% increase in inositol phosphates (Table 3); this level of PI hydrolysis was only seen in cells expressing the wild type receptor with a two fold higher level of receptor expression. […] The α1B -ADR, appearing on the surface of RAT-1 fibroblasts following transfection, therefore, functionally couples to PI hydrolysis in these cells. Whether receptor coupling to PLC actually mediates the α1B -ADR's ability to induce malignant transformation in these cells, however, remains speculative. Coupling of this receptor to alternate G proteins or effector systems may be responsible for triggering uncontrolled cell proliferation.
In Table 3, RAT-1 fibroblast cell lines transfected with expression vector alone or derived from transformed foci (α1B ADR or α1B ADR mutant) were selected with G418 (300 μg/ml). Ligand binding was performed on membranes prepared from two clones of each in accordance with known techniques (S. Cotecchia et al., Life Sci. 37, 2389 (1986)). For saturation binding analysis, [^125 ] HEAT concentrations ranged from 10 to 500 pM, nonspecific binding was determined using 1 μM prazosin; in competition experiments, the radioligand concentration was 100 pM. Ligand binding parameters were determined using computerized iterative nonlinear regression analysis (P. Munson, Methods in Enzymol. 92, 5432 (1983)). […]

α1B ADR = biological target: T1, α1B ADR (Mesocricetus auratus, UniProt P18841); experiment: Ligand binding on membranes of RAT-1 fibroblast cell lines expressing the α1B ADR; design: species or system hamster; conditions: competition with 100 pM [125I] HEAT; membranes, two clones; read-out: NE Ki
T1 construct: expressed in transfected cells; host or cells: RAT-1 fibroblasts (vector pZIP-NeoSV(X)1), focus-derived, G418-selected lines
T1 sequence (P18841 1-515): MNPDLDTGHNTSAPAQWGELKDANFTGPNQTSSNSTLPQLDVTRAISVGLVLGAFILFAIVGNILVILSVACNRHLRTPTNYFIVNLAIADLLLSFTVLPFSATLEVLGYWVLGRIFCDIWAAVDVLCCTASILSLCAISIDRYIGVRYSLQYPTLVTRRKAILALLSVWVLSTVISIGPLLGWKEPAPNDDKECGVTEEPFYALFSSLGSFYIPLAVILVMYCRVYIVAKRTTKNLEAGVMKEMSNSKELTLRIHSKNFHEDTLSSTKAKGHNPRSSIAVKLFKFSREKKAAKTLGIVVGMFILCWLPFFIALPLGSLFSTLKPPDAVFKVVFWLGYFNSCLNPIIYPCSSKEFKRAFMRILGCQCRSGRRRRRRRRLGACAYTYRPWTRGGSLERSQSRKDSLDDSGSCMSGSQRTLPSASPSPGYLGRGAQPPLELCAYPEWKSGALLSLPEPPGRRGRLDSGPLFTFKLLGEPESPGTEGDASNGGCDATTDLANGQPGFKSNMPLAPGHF
Protocol: In Table 3, RAT-1 fibroblast cell lines transfected with expression vector alone or derived from transformed foci (α1B ADR or α1B ADR mutant) were selected with G418 (300 μg/ml). Ligand binding was performed on membranes prepared from two clones of each in accordance with known techniques (S. Cotecchia et al., Life Sci. 37, 2389 (1986)). For saturation binding analysis, [^125 ] HEAT concentrations ranged from 10 to 500 pM, nonspecific binding was determined using 1 μM prazosin; in competition experiments, the radioligand concentration was 100 pM. Ligand binding parameters were determined using computerized iterative nonlinear regression analysis (P. Munson, Methods in Enzymol. 92, 5432 (1983)). For assessment of receptor coupling to PI hydrolysis, cells were plated in 30 mm dishes, and labeled overnight with 3 μCi/ml of myo-[2-^3 II(N)]-inositol (1Ci=37 GBq; NEN Research Products) in DMEM containing 3.3% FBS in accordance with known techniques (S. Cotecchia et al., Proc. Natl. Acad. Sci. USA 87, 2896 (1990)). After 40 minute stimulation of cells with 10 μM norepinephrine (NE), inositol phosphates were extracted, and separated on AG 1-X8 anion exchange columns (BioRad Labs) in accordance with known techniques (S. Cotecchia et al., Proc. Natl. Acad. Sci. USA 87, 2896 (1990)). Total inositol phosphates were eluted with 1M ammonium formate/0.1M formic acid. Rmax indicates the percentage increase of total labeled inositol phosphates over basal levels following NE stimulation.

Question: Which activation at 10 µM [1] does the source give for `NC[C@H](O)c1ccc(O)c(O)c1` [NE, norepinephrine] here?
Answer: 0%

Question: What about the Ki (α1B ADR) of the same compound?
Answer: 5.82 µM and 5.33 µM
